Three compounds from patent US20180200233A1, “COMPOSITIONS FOR PREVENTING CANCERS ASSOCIATED WITH HUMAN PAPILLOMA VIRUSES” (Loma Linda University, priority 2015, published 2018) can be followed below.

Molecules are shown by their SMILES.

Assay [1] concerns the target T1, GST-caspase 8/His-caspase 8 (Homo sapiens, UniProt Q14790).
T1 construct: pTriEx-Caspase-8 DED plasmids; fused on or other part: GST tag on one copy, His tag on the other (AlphaScreen bead handles)
The assay is described as follows: AlphaScreen counter-screen, GST-caspase 8/His-caspase 8 binding. Conditions: for EC50 for GST-caspase 8/His-caspase 8 interaction: compounds tested 1.4 μM to 3.2 mM. The method, then: FIGS. 2A-C are graphs providing data regarding inhibition of protein-protein interactions by 3-(1H-indol-1yl)propan-1-amine (1), three benzimidazole derivatives (2-4), and spinacine (5). Compounds, at the indicated concentrations (1.4 μM to 3.2 mM) were tested using a bead-based screening assay for their ability to inhibit three different protein/protein interactions: (FIG. 2A) GST-E6/His-caspase 8; (FIG. 2B) GST-E6/HisE6AP; and (FIG. 2C) GST-caspase 8/His-caspase 8. Binding in the presence of 1.4 μM of the test compound was set at 100%. Experiments were performed in triplicate, and error bars indicate the standard deviation.
To ask whether this inhibition was specific, a counter-screening assay was employed the ability of candidates to inhibit the binding of GST-caspase 8 to His-caspase 8 was assessed; those that did were to be eliminated. In this counter-screening assay, the materials in each well were the same as in the primary screen, with the exception that GST-caspase 8 replaced GST-E6.
Alpha-Screen™ technology was used to assess the interactions between GST-E6, GST-caspase 8, His-E6AP, and His-caspase 8. Binding assays were performed in white 384-well plates (Perkin-Elmer) in a total volume of 25 μl as previously described (Tungteakkhun, S. S., et al., The interaction between human papillomavirus type 16 and FADD is mediated by a novel E6 binding domain. Journal of virology, 2008. 82(19): p. 9600-14). Briefly, 5 μl (50 ng) of GST-E6 and 5 μl (87.5 ng) of His-caspase 8 were included in each reaction mixture with 5 μl blocking buffer (0.5 mg BSA, 0.5% Tween 20 in PBS) in the absence or presence of 10 μM of each test chemical. Members of the library were present at […] in DMSO. After a one-hour incubation of the mixture at room temperature, 5 μl donor beads and 5 μl acceptor beads (Perkin-Elmer) were added to each well according to the manufacturer's protocol. The mixture was incubated in the dark at room temperature overnight, and the emitted signal was detected using the Envision Multilabel plate reader (Perkin-Elmer). In the presence of test chemicals, the binding affinity was calculated as a percentage of the binding in the presence of carrier only (DMSO).
For orientation: In Alpha technology, singlet oxygen from a donor bead excites a nearby acceptor bead.

Assay [2] relates to caspase 8 level in SiHa cells. In words: Immunoblot of caspase 8 level in SiHa cells. The format is cell-based, human. The conditions noted are these: 50, 100 and 200 μM for 24 hr. The procedure:
FIGS. 6A-B is an immunoblot and FIG. 6B is a graph showing that treatment with myricetin and spinacine (5) increased cellular levels of caspase 8 and p53. (FIG. 6A) SiHa cells (1×10^6 per well) were seeded into a 6-well plate and allowed to incubate overnight. The indicated concentrations of myricetin and spinacine were added, then cells were incubated for 24 h. Cells were then washed in 1×PBS, then harvested and the resulting level of caspase 8 was measured by immunoblot. (FIG. 6B) SiHa and C33A cells (1×10^6 per well) were seeded into a 6-well plate and allowed to incubate overnight. 200 μM of myricetin and 100 μM spinacine were added together with 4 μg/ml mitomycin C and incubated for 24 h. The resulting level of p53 was measured by ELISA, and the level of p53 found in untreated cells was set at 100%. […]
If this ability is due to inhibition of E6 functions, then an increase in the levels of caspase 8 and p53 should be observable in SiHa cells following treatment with myricetin and spinacine. To test this prediction, SiHa cells were treated with 50, 100, and 200 μM of myricetin or spinacine for 24 hr, and then measured the level of caspase 8 by immunoblot. […]
Cells (1×10^6) were collected and washed with PBS. […] Signals were measured using the Odyssey Infrared Imaging system (LI-COR Biosciences) and expressed in relative light units.
Background: Immunoblotting shows a protein as a band on a membrane.

T1 sequence (Q14790 whole entry, the tested form may be a part): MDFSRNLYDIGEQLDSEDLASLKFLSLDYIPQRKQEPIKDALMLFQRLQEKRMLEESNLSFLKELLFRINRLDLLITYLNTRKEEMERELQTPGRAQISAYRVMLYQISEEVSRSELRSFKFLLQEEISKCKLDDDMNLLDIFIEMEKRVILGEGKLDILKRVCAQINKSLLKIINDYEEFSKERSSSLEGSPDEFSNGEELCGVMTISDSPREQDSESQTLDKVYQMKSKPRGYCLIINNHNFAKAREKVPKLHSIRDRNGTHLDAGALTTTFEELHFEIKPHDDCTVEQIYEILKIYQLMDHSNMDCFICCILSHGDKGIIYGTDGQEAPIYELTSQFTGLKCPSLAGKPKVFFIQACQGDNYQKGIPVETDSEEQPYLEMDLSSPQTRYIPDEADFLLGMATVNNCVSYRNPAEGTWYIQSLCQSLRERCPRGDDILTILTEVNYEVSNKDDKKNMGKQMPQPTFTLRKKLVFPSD

`OCn1cnc2ccccc21` [Compound 3, 1H-benzimidazole-1-methanol]: the “EC50 for GST-caspase 8/His-caspase 8 interaction” value in assay [1] was “No Inhibition”.
On to `O=C(O)C1Cc2[nH]cnc2CN1` (centres unmarked) [Compound 5, 4,5,6,7-Tetrahydro-1H-imidazo(4,5-c)pyridine-6-carboxylic acid], for which, in assay [2], the “caspase 8 levels in SiHa cells (in words)” value was “increase in caspase 8 at doses from 50 to 200 μM”. The “inhibition of caspase 8/caspase 8 interaction (in words)” value in assay [1] (FIG. 2C) is given as “did not significantly inhibit”. In assay [1], the “EC50 for GST-caspase 8/His-caspase 8 interaction” value is recorded as “No”.
Take `O=c1c(O)c(-c2cc(O)c(O)c(O)c2)oc2cc(O)cc(O)c12` [Myricetin, reference compound]: in assay [2], the “caspase 8 levels in SiHa cells (in words)” value was “increase in caspase 8 levels at doses of 100 μM and 200 μM”.
